Assay results: patent publication US11834435B2, “SSTR4 agonist salts” (Eli Lilly and Company, priority 2021, dated 2023)

Legend:
hSSTR4 [1] = target: T1, hSSTR4 (Homo sapiens (Human), UniProt P31391); test: cAMP assay (inhibition of forskolin-stimulated cAMP) in hSSTR4 expressing H4 cells; type: cell-based; conditions: after being dissolved to free base forms
Method: The activation of the SSTR4 receptor (G coupled) causes an inhibition of intracellular cAMP after stimulation with Forskolin, which can be quantifiable by use of a suitable assay Kit and an adequate plate reader. This technique is used to characterize pharmacological effects of the SSTR4 receptor agonists by use of hSSTR4 expressing H4 cells. The compound is dissolved and diluted in DMSO. The final test solution contains 1% DMSO. The cAMP standard (Lance™ cAMP 384 Kit; PerkinElmer, Cat #AD0264) is prepared in assay buffer (HBSS with 0.1% BSA, 5 mM HEPES, […], pH 7.4) containing 1% DMSO and the cAMP standard curve is included at least on one plate. Cells are centrifuged and suspended in assay buffer (incl. 1:100 diluted Alexa Fluor® antibody). For the assay 5 μL of a cell suspension (approximately 5000 cells/well)-incl. Alexa Fluor® antibody (diluted 1:100) are added into a 384 well MTP microtiter plate excepting one row or column (depending on the plate layout), which is reserved for the standard curve. Then 2 μL of compound sample is added as concentration response curve (e.g., le-5 M to 6e-10 M), usually in triplicates. Each assay contains incubations with vehicle controls instead of compound as controls for non-inhibited cAMP generation (100% CTL; ‘high values’) and incubations with 1 μM Somatostatin as controls for full inhibition and background (0% CTL; ‘low values’). After approximately 10-15 min incubation time 3 μL Forskolin (dissolved in DMSO, final conc. 15 μM) is added. Then the plates are shaken briefly and incubated for 60 min at RT. After 60 min 10 μL of the detection mix is added into all wells followed by an additional incubation period of 1 h. The plates are read in a suitable plate reader. The analysis of the data is based on the “ratio” of the time-resolved fluorescence measurements of donor and acceptor fluorophore (Ex: 320 nm; Em1: 665 nm; Em2: 615 nm; ratio 665/615). From this ratio, cAMP concentrations are calculated from standard curve and the EC50 is estimated by least square curve fit program. […]

hSSTR4 [2] = target: T1, hSSTR4; test: Radioligand competition binding, membrane homogenate; conditions: after being dissolved to free base forms
Method: In competition experiments, the test compound, which is not labeled, competes with the binding site of a labeled ligand. The displacement of the labeled ligand by the test compound leads to a decreased signal. For the binding experiments 200 μL of membrane homogenate from one of the following protein amounts is used: hSSTR1 (40 μg/well); hSSTR2 (25 μg/well); hSSTR3 (1.5 μg/well); hSSTR4 (0.5 μg/well); hSSTR5 (25 μg/well). The homogenate is incubated with 0.05 nM of radioligand ([3-125I-Tyr]-Somatostatin-(1-14)) in addition to increasing concentrations of a test compound or vehicle (100% binding) in a total volume of 250 μL using a Hepes buffer (10 mM, EDTA 1 mM, MgCl2 5 mM, pH 7.6, BSA 0.5%, Bacitracin 0.003%, DMSO 1%) for 180 min at RT. The incubation is terminated by filtration with ice cold NaCl 0.9% through polyethyleneimine treated (0.3%) grade GF/B glass fiber filters using a cell harvester. The protein-bound radioactivity is measured in a suitable reader. The non-specific binding is defined as radioactivity bound in the presence of 1 μM Somatostatin-14 during the incubation period. The analysis of the concentration-binding curves is performed by computer-assisted nonlinear least square curve fitting method using the model of one receptor binding site.

T1 sequence (P31391 whole entry): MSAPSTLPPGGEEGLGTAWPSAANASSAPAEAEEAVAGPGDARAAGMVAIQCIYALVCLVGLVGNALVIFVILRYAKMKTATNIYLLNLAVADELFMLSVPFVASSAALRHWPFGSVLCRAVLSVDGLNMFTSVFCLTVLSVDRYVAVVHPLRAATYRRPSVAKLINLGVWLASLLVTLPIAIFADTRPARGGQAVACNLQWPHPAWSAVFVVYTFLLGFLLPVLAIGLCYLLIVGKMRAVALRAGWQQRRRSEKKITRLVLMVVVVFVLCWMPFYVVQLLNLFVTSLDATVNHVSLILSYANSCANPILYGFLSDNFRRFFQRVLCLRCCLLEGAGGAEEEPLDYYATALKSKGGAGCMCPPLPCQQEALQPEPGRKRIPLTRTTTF

SMILES | SSTR4 agonism (in words) (hSSTR4 [1]) | Selectivity of binding to SSTR4 over SSTR1, SSTR2, SSTR3 and SSTR5 (in words) (hSSTR4 [2])
Cc1cccnc1OCC(C)(C)NC(=O)[C@H]1[C@@H]2CNC[C@@H]21.O=C(O)CC(O)(CC(=O)O)C(=O)O [Example 2, (1S,5R)-(1α,5α,6α)-N-[1,1-dimethyl-2-[(3-methyl-2-pyridyl)oxy]ethyl]-3-azabicyclo[3.1.0]hexane-6-carboxamide citrate] | agonists of SSTR4 | selectively bind to SSTR4
Cc1cccnc1OCC(C)(C)NC(=O)[C@H]1[C@@H]2CNC[C@@H]21.O=C(O)C(O)C(O)C(=O)O [Example 1, (1S,5R)-(1α,5α,6α)-N-[1,1-dimethyl-2-[(3-methyl-2-pyridyl)oxy]ethyl]-3-azabicyclo[3.1.0]hexane-6-carboxamide L-tartrate sesquihydrate] | agonists of SSTR4 | selectively bind to SSTR4
Cc1cccnc1OCC(C)(C)NC(=O)[C@H]1[C@@H]2CNC[C@@H]21.O=C(O)C[C@H](O)C(=O)O [Example 3, (1S,5R)-(1α,5α,6α)-N-[1,1-dimethyl-2-[(3-methyl-2-pyridyl)oxy]ethyl]-3-azabicyclo[3.1.0]hexane-6-carboxamide L-malate] | agonists of SSTR4 | selectively bind to SSTR4
